Here are results for 14 compounds from patent publication US8729082B2, “Substituted imidazoquinoxalines” (Bayer Intellectual Property GmbH, priority 2009, dated 2014).

For the assay, the target named is T1, human kinase Mps-1 (Homo sapiens, UniProt P33981).
T1 construct: N-terminally GST-tagged human full length recombinant Mps-1 kinase; purchased Invitrogen, Karslruhe, Germany PV4071
T1 sequence (P33981 1-857): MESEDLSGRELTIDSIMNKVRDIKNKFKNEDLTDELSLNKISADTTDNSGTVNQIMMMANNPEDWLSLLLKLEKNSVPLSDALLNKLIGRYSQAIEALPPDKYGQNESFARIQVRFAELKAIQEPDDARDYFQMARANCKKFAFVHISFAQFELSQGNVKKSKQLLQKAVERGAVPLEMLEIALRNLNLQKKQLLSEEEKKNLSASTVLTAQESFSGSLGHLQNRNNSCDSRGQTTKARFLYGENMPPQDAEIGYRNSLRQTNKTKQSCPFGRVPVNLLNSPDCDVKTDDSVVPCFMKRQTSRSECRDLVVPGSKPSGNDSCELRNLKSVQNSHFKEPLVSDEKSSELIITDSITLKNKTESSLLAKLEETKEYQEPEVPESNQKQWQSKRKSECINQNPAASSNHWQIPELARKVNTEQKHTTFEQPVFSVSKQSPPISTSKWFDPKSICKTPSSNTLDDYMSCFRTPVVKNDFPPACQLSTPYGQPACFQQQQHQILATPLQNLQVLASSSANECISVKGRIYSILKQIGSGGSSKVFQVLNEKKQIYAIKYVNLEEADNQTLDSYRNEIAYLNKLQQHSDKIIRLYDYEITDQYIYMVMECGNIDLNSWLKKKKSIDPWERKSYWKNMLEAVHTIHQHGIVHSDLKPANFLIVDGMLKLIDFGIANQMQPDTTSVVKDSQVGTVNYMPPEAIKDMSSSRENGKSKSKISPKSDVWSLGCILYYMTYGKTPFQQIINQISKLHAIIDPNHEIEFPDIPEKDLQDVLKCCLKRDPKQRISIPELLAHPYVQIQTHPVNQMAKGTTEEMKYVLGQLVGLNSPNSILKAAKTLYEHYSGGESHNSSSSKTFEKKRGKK
The assay can be described thus: Mps-1 kinase assay (HTRF). It is filed as biochemical. The conditions noted are these: lowATP; mean; read-out: Mps1 lowATP mean IC50. The procedure, abridged: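 HTRF readout: EDTA-stopped reactions incubated 1 h with europium anti-phospho(Ser/Thr) antibody and streptavidin-XLent, emission ratio 665/620 nm after 350 nm excitation. Kinase step: compound pre-bound 15 min to ~1 nM GST-Mps-1, then 60 min at 22 °C with ATP and biotin-peptide substrate; inhibition scaled between no-inhibitor (0%) and no-enzyme (100%) controls.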
On the technique in general: In TR-FRET formats the signal depends on donor and acceptor labels being close together.
As usually defined, the IC50 is the concentration needed to halve the response being measured. Consider `Cc1cc2nc(NCC(O)CO)c3ncc(-c4ccc(C(=O)NC5CC5)c(Cl)c4)n3c2cc1C` (centres unmarked) [Example 2-202, 2-chloro-N-cyclopropyl-4-{4-[(2,3-dihydroxypropyl)amino]-7,8-dimethylimidazo[1,2-a]quinoxalin-1-yl}benzamide], for which the half-inhibitory concentration (IC50) stood at 0.335 µM.

On to `CCCNc1nc2cc(C#N)ccc2n2c(-c3ccc(C(=O)NC4CC4)cc3)cnc12` [Example 2-203, 4-[7-cyano-4-(propylamino)imidazo[1,2-a]quinoxalin-1-yl]-N-cyclopropylbenzamide], for which the IC50 came to 0.0111 µM.

Turning to `N#Cc1ccc2c(c1)nc(NCCO)c1ncc(-c3ccc(C(=O)NC4CC4)cc3)n12` [Example 2-204, 4-{7-cyano-4-[(2-hydroxyethyl)amino]imidazo[1,2-a]quinoxalin-1-yl}-N-cyclopropylbenzamide], the IC50 is 0.0776 µM.

For `N#Cc1ccc2c(c1)nc(NCCCN1CCOCC1)c1ncc(-c3ccc(C(=O)NC4CC4)cc3)n12` [Example 2-205, 4-(7-cyano-4-{[3-(morpholin-4-yl)propyl]amino}imidazo[1,2-a]quinoxalin-1-yl)-N-cyclopropylbenzamide], the IC50 was 0.413 µM.

For the compound `N#Cc1ccc2c(c1)nc(NCc1cccc(F)c1)c1ncc(-c3ccc(C(=O)NC4CC4)cc3)n12` [Example 2-206, 4-{7-cyano-4-[(3-fluorobenzyl)amino]imidazo[1,2-a]quinoxalin-1-yl}-N-cyclopropylbenzamide], the IC50 was determined as 0.0507 µM.

Take `N#Cc1ccc2c(c1)nc(NCCCN1CCCC1=O)c1ncc(-c3ccc(C(=O)NC4CC4)cc3)n12` [Example 2-207, 4-(7-cyano-4-{[3-(2-oxopyrrolidin-1-yl)propyl]amino}imidazo[1,2-a]quinoxalin-1-yl)-N-cyclopropylbenzamide]: the IC50 was 0.195 µM.

Turning to `COCCNc1nc2cc(C#N)ccc2n2c(-c3ccc(C(=O)NC4CC4)cc3)cnc12` [Example 2-208, 4-{7-cyano-4-[(2-methoxyethyl)amino]imidazo[1,2-a]quinoxalin-1-yl}-N-cyclopropylbenzamide], the IC50 amounted to 0.0795 µM.

Regarding `N#Cc1ccc2c(c1)nc(NCC(F)(F)F)c1ncc(-c3ccc(C(=O)NC4CC4)cc3)n12` [Example 2-209, 4-{7-cyano-4-[(2,2,2-trifluoroethyl)amino]imidazo[1,2-a]quinoxalin-1-yl}-N-cyclopropylbenzamide], the IC50 was 0.0289 µM.

With `CCNc1nc2cc(C#N)ccc2n2c(-c3ccc(C(=O)NC4CC4)cc3)cnc12` [Example 2-210, 4-[7-cyano-4-(ethylamino)imidazo[1,2-a]quinoxalin-1-yl]-N-cyclopropylbenzamide], the IC50 worked out at 0.0359 µM.

Regarding `N#Cc1ccc2c(c1)nc(NCCCO)c1ncc(-c3ccc(C(=O)NC4CC4)cc3)n12` [Example 2-211, 4-{7-cyano-4-[(3-hydroxypropyl)amino]imidazo[1,2-a]quinoxalin-1-yl}-N-cyclopropylbenzamide], the IC50 worked out at 0.0329 µM.

On to `CCCCNc1nc2cc(C#N)ccc2n2c(-c3ccc(C(=O)NC4CC4)cc3)cnc12` [Example 2-212, 4-[4-(butylamino)-7-cyanoimidazo[1,2-a]quinoxalin-1-yl]-N-cyclopropylbenzamide], for which the IC50 worked out at 0.01 µM.

`N#Cc1ccc2c(c1)nc(NCc1ccccn1)c1ncc(-c3ccc(C(=O)NC4CC4)cc3)n12` [Example 2-213, 4-{7-cyano-4-[(pyridin-2-ylmethyl)amino]imidazo[1,2-a]quinoxalin-1-yl}-N-cyclopropylbenzamide]: the IC50 is 0.106 µM.

In the case of `N#Cc1ccc2c(c1)nc(NCc1cccnc1)c1ncc(-c3ccc(C(=O)NC4CC4)cc3)n12` [Example 2-214, 4-{7-cyano-4-[(pyridin-3-ylmethyl)amino]imidazo[1,2-a]quinoxalin-1-yl}-N-cyclopropylbenzamide], the IC50 was found to be 0.0288 µM.

As to `N#Cc1ccc2c(c1)nc(NCc1ccco1)c1ncc(-c3ccc(C(=O)NC4CC4)cc3)n12` [Example 2-215, 4-{7-cyano-4-[(furan-2-ylmethyl)amino]imidazo[1,2-a]quinoxalin-1-yl}-N-cyclopropylbenzamide], the concentration for half-maximal inhibition (IC50) stood at 0.0248 µM.
